Laboratory results reported in the NIST ThermoML archive (doi:10.1016/j.tca.2019.01.016).
Numbers after ± are expanded uncertainties.

Conditions: 298 K; 101.33 kPa; Crystal; SIGMATEST 2.069 (Foerster) testing instrument - complex impedance measurements

electrical conductivity: 6.107e+07 ± 610000 S/m
SMILES: [Ag] [silver]
